Earlier results, collected in patent US20050181032A1, “Metastable pharmaceutical compositions” (Acrux DDS Pty Ltd., priority 2002, published 2005).

LogP: 3.91
SMILES: C#C[C@]1(O)CC[C@H]2[C@@H]3CCc4cc(O)ccc4[C@H]3CC[C@@]21C [EE2, Ethinyl Estradiol]
